Experimental findings from ChEMBL document CHEMBL5678818, “Discovery of potent SOS1 inhibitors that block RAS activation via disruption of the RAS-SOS1 interaction” (Proc Natl Acad Sci U S A, 2019) are described below.

Assay [1] addresses T1, Ephrin type-B receptor 2 (Homo sapiens) (UniProt P29323).
T1 sequence (whole entry): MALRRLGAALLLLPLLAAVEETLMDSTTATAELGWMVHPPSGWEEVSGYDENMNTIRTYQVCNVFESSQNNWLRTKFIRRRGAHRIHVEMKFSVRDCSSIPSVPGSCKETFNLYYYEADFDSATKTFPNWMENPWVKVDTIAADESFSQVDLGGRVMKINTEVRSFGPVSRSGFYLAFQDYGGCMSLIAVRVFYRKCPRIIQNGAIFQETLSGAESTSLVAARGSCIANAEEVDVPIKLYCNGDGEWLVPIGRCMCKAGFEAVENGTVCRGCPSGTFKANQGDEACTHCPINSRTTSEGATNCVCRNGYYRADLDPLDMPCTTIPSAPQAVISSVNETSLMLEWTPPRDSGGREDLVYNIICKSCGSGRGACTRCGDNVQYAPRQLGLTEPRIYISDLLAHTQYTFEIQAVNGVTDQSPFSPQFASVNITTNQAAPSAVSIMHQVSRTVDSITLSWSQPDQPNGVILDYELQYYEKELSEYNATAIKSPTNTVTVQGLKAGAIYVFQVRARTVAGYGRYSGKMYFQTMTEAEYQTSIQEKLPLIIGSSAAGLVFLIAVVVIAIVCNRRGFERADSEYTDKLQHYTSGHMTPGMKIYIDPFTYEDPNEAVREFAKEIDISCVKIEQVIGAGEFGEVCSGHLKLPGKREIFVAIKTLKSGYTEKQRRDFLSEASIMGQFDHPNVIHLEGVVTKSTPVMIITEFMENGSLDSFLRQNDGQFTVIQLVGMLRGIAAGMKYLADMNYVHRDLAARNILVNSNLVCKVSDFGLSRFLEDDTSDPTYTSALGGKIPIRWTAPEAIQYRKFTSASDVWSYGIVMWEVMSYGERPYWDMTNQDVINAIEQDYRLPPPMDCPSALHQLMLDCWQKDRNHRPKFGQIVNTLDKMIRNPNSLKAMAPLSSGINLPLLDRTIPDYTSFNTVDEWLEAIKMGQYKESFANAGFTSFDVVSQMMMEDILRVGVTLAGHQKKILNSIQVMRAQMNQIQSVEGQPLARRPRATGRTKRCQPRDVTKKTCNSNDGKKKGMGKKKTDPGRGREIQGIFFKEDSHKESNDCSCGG
Nature of the assay: Inhibition of EPHB2 (unknown origin) assessed as residual activity at 100 nM by KINOMEscan analysis relative to control.

In assay [2] the target is T2, Cyclin-G-associated kinase (Homo sapiens) (UniProt O14976).
T2 sequence (whole entry): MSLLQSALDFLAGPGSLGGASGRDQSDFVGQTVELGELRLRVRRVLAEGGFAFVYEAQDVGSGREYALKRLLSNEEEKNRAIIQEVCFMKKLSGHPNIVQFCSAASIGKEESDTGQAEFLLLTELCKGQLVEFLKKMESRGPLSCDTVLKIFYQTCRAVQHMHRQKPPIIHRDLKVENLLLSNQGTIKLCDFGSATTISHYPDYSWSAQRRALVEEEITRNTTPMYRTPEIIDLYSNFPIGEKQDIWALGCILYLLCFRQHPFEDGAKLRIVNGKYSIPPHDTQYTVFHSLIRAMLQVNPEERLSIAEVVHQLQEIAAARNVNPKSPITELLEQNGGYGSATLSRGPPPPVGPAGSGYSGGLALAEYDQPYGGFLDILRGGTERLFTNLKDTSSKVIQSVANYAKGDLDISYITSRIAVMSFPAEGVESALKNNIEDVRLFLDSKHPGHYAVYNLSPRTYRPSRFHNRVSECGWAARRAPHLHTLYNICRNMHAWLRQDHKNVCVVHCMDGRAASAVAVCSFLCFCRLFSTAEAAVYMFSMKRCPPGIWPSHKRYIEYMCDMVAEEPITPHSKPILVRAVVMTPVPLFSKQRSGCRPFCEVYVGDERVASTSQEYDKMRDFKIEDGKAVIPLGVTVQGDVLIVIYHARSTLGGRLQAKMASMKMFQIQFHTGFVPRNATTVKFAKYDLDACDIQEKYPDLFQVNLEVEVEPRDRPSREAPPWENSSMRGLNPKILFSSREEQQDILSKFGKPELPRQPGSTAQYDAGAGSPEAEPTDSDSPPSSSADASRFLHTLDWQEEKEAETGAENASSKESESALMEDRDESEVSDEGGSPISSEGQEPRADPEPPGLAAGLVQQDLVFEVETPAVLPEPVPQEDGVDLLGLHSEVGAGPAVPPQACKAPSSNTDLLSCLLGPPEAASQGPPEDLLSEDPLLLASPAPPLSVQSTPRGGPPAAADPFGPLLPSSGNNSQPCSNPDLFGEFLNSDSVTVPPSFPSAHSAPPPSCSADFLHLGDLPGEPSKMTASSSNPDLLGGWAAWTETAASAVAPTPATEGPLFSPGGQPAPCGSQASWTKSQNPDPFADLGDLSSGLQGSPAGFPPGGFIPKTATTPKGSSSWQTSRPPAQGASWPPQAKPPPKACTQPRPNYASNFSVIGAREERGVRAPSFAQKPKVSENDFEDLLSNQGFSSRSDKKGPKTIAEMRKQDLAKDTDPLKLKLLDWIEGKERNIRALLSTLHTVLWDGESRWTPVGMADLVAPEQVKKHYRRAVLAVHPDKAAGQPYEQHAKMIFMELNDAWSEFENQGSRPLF
Put plainly: Inhibition of GAK (unknown origin) assessed as residual activity at 100 nM by KINOMEscan analysis relative to control.

The target in assay [3] is Serine/threonine-protein kinase MRCK beta (Homo sapiens) (UniProt Q9Y5S2). Nature of the assay: Inhibition of MRCKB (unknown origin) assessed as residual activity at 100 nM by KINOMEscan analysis relative to control.
Chain of Serine/threonine-protein kinase MRCK beta (Homo sapiens) (Q9Y5S2 whole entry): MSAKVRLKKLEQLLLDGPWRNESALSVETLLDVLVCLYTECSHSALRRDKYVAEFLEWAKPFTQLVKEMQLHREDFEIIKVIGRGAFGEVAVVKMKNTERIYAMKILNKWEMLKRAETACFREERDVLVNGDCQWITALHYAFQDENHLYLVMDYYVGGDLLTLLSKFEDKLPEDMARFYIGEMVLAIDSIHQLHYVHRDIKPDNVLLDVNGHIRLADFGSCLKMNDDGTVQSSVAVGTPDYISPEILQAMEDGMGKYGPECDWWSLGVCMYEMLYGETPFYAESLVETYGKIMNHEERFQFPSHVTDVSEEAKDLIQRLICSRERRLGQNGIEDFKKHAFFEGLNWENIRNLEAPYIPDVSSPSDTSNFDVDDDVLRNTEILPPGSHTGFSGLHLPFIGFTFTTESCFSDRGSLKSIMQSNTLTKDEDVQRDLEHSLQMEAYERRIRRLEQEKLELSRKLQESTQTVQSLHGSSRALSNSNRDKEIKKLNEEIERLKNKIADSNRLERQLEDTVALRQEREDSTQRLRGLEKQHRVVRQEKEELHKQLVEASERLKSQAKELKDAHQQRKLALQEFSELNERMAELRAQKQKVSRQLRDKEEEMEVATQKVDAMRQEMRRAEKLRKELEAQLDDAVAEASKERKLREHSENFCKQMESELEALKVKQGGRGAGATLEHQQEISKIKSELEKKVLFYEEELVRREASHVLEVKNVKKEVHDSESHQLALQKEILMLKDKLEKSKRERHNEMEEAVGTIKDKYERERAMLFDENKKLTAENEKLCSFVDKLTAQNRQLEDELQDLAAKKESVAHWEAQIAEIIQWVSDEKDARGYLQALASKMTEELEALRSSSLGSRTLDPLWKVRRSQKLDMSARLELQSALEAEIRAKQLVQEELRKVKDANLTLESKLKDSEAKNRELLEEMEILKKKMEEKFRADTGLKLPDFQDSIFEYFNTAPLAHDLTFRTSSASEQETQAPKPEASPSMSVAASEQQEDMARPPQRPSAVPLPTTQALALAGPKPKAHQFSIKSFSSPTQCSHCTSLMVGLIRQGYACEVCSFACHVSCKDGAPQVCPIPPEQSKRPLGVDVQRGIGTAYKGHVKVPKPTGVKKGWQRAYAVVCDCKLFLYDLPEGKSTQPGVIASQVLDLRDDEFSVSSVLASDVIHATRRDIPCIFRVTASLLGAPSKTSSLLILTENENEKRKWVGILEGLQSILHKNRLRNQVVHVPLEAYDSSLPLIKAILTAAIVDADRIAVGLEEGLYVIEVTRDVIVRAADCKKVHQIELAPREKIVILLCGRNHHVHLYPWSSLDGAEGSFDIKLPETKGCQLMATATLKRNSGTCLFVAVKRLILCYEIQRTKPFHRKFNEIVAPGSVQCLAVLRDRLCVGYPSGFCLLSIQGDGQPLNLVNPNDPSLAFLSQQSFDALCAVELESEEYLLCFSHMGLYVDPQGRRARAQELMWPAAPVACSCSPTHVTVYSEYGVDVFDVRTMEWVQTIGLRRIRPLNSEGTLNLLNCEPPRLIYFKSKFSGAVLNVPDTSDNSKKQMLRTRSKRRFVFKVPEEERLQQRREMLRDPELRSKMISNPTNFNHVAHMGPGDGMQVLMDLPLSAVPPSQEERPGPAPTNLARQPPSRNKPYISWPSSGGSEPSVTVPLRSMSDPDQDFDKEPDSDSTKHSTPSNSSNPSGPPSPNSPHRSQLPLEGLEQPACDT
The target of assay [4] is Serine/threonine-protein kinase NIM1 (Homo sapiens) (UniProt Q8IY84). Put plainly: Inhibition of NIM1 (unknown origin) assessed as residual activity at 100 nM by KINOMEscan analysis relative to control.
Chain of Serine/threonine-protein kinase NIM1 (Homo sapiens) (Q8IY84 whole entry): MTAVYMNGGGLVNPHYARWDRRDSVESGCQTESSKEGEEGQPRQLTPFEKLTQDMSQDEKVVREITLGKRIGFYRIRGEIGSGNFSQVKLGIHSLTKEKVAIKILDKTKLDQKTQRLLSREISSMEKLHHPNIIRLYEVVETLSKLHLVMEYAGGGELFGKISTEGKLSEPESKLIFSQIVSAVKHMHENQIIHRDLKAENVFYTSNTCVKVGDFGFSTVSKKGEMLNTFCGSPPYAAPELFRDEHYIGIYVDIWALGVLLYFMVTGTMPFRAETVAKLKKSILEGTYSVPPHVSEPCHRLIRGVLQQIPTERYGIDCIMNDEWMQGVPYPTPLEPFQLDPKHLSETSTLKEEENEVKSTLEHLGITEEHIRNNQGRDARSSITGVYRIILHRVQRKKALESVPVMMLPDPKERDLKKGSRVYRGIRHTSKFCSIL
In assay [5] the target is Ribosomal protein S6 kinase beta-1 (Homo sapiens) (UniProt P23443). Put plainly: Inhibition of S6K1 (unknown origin) assessed as residual activity at 100 nM by KINOMEscan analysis relative to control.
Chain of Ribosomal protein S6 kinase beta-1 (Homo sapiens) (P23443 whole entry, looked up): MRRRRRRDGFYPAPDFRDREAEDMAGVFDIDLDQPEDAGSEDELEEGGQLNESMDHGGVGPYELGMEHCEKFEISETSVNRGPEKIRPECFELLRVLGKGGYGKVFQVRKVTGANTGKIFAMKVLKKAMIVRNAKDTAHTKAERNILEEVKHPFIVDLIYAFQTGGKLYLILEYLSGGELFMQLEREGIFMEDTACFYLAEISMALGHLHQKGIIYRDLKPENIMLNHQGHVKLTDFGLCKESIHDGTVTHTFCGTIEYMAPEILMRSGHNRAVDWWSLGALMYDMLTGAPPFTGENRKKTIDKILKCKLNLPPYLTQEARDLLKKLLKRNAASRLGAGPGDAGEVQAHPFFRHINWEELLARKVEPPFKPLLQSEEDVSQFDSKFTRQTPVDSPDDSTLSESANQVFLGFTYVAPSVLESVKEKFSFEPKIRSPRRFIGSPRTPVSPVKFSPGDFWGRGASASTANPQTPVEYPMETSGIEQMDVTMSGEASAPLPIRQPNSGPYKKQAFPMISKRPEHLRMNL
In assay [6] the target is Serine/threonine-protein kinase SIK1 (Homo sapiens) (UniProt P57059). Put plainly: Inhibition of SIK (unknown origin) assessed as residual activity at 100 nM by KINOMEscan analysis relative to control.
Chain of Serine/threonine-protein kinase SIK1 (Homo sapiens) (P57059 whole entry): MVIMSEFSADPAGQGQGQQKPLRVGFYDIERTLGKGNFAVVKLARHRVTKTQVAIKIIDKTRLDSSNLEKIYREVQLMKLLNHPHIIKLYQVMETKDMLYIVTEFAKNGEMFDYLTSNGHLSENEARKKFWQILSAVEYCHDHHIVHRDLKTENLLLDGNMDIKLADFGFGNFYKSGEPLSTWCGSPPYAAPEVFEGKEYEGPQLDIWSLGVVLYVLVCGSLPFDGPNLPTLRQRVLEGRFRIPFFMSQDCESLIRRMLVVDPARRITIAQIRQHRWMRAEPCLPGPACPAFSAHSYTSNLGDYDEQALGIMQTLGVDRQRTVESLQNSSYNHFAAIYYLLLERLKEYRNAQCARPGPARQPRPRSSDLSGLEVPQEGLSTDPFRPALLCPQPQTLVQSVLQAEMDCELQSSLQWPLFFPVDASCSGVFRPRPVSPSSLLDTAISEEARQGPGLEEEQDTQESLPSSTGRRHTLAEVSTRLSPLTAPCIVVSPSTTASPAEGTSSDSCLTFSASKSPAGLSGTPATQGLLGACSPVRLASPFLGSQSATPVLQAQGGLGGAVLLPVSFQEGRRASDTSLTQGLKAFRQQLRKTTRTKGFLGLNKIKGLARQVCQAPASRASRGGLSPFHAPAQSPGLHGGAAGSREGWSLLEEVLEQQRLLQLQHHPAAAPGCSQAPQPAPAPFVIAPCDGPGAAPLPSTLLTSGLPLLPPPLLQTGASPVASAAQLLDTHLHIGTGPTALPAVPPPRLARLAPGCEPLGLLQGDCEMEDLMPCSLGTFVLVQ

Structures are written as SMILES.

For `COc1cc2ncnc(N[C@H](C)c3cccc4ccccc34)c2cc1OC`, the Activity in assay [1] was 85%; in assay [2] it was 100%; in assay [3], 82%; in assay [4], 78%; in assay [5], 77%; in assay [6], 85%.
